Laboratory results: patent US20230373974A1, “MODULATORS OF CYSTIC FIBROSIS TRANSMEMBRANE CONDUCTANCE REGULATOR” (VERTEX PHARMACEUTICALS INCORPORATED, priority 2020, published 2023)

Legend:
[1] = target: CFTR-mediated chloride transport in human intestinal epithelial enteroid cells (Homo sapiens, UniProt P13569); test: Enteroid assay: membrane potential dye assay (Enteroid Assay A or B); assay type: cell-based; settings: for Ent. Max Activity (%): chloride transport as percentage of triple combination control (% Activity)
Method: Base medium (ADF+++) consisted of Advanced DMEM/Ham's F12, 2 mM Glutamax, 10 mM HEPES, […] penicillin/streptomycin.
Intestinal enteroid maintenance medium (IEMM) consisted of ADF+++, 1×B27 supplement, 1×N2 supplement, 1.25 mM N-acetyl cysteine, 10 mM Nicotinamide, 50 ng/mL hEGF, 10 nM Gastrin, 1 μg/mL hR-spondin-1, 100 ng/mL hNoggin, TGF-b type 1 inhibitor A-83-01, 100 μg/mL Primocin, 10 μM P38 MAPK inhibitor SB202190.
Bath 1 Buffer consisted of 1 mM MgCl2, 160 mM NaCl, 4.5 mM KCl, 10 mM HEPES, 10 mM Glucose, 2 mM CaCl2).
Chloride Free Buffer consisted of 1 mM Magnesium Gluconate, 2 mM Calcium Gluconate, 4.5 mM Potassium Gluconate, 160 mM Sodium Gluconate, 10 mM HEPES, 10 mM Glucose.
Bath1 Dye Solution consisted of Bath 1 Buffer, 0.04% Pluronic F127, 20 μM Methyl Oxonol, 30 μM CaCCinh-A01, 30 μM Chicago Sky Blue.
Chloride Free Dye Solution consisted of Chloride Free Buffer, 0.04% Pluronic F127, 20 μM Methyl Oxonol, 30 μM CaCCinh-A01, 30 μM Chicago Sky Blue.
Chloride Free Dye Stimulation Solution consisted of Chloride Free Dye Solution, 10 μM forskolin, 100 μM IBMX, and 300 nM Compound III.
Human intestinal epithelial enteroid cells were obtained from the Hubrecht Institute for Developmental Biology and Stem Cell Research, Utrecht, The Netherlands and expanded in T-Flasks as previously described (Dekkers J F, Wiegerinck C L, de Jonge H R, Bronsveld I, Janssens H M, de Winter-de Groot K M, Brandsma A M, de Jong N W M, Bijvelds M J C, Scholte B J, Nieuwenhuis E E S, van den Brink S, Clevers H, van der Ent C K, Middendorp S and M Beekman J M. A functional CFTR assay using primary cystic fibrosis intestinal organoids. Nat Med. 2013 July; 19(7):939-45).
3. Enteroid Cell Harvesting and Seeding […]
Enteroid cells were incubated with test compound in IEMM for 18-24 hours at 37° C., 95% humidity and 5% CO2. […] Chloride transport was initiated by addition of Chloride Free Dye Stimulation Solution and the fluorescence signal was read for 15 min. […] Chloride transport was then expressed as a percentage of the chloride transport following treatment with 3 μM (S)—N-((6-aminopyridin-2-yl)sulfonyl)-6-(3-fluoro-5-isobutoxyphenyl)-2-(2,2,4-trimethylpyrrolidin-1-yl)nicotinamide, 3 μM (R)-1-(2,2-difluorobenzo[d][1,3]dioxol-5-yl)-N-(1-(2,3-dihydroxypropyl)-6-fluoro-2-(1-hydroxy-2-methylpropan-2-yl)-1H-indol-5-yl)cyclopropanecarboxamide and 300 nM acute N-[2,4-bis(1,1-dimethylethyl)-5-hydroxyphenyl]-1,4-dihydro-4-oxoquinoline-3-carboxamide triple combination control (% Activity). […]
Enteroid cells were incubated with test compound in IEMM for 18-24 hours at 37° C., 95% humidity and 5% CO2. […] Chloride transport was initiated by addition of Chloride Free Dye Stimulation Solution and the fluorescence signal was read for 15 min. […]

F508del in NIH 3T3 cells = target: T1, F508del in NIH 3T3 cells (Homo sapiens, UniProt P13569, DEL508-508); test: 3T3 assay: membrane potential optical assay for F508del correction; assay type: cell-based, mouse; settings: F508del NIH 3T3 cells, incubated with compound 18-24 hours at 37° C., forskolin activation
T1 construct: expressed in transfected cells
Source text: Membrane Potential Optical Methods for Assaying F508del Modulation Properties of Compounds The assay utilizes fluorescent voltage sensing dyes to measure changes in membrane potential using a fluorescent plate reader (e.g., FLIPR III, Molecular Devices, Inc.) as a readout for increase in functional F508del in NIH 3T3 cells. The driving force for the response is the creation of a chloride ion gradient in conjunction with channel activation by a single liquid addition step after the cells have previously been treated with compounds and subsequently loaded with a voltage sensing dye. 2. Identification of Corrector Compounds To identify correctors of F508del, a single-addition HTS assay format was developed. This HTS assay utilizes fluorescent voltage sensing dyes to measure changes in membrane potential on the FLIPR III as a measurement for increase in gating (conductance) of F508del in F508del NIH 3T3 cells. The F508del NIH 3T3 cell cultures were incubated with the corrector compounds at a range of concentrations for 18-24 hours at 37° C., and subsequently loaded with a redistribution dye. The driving force for the response is a Cl^− ion gradient in conjunction with channel activation with forskolin in a single liquid addition step using a fluorescent plate reader such as FLIPR III. […] Solutions […] Chloride-free bath solution: Chloride salts in Bath Solution #1 (above) are substituted with gluconate salts. 4. Cell Culture NIH3T3 mouse fibroblasts stably expressing F508del are used for optical measurements of membrane potential. The cells are maintained at 37° C. in 5% CO2 and 90% humidity in Dulbecco's modified Eagle's medium supplemented with 2 mM glutamine, 10% fetal bovine serum, 1×NEAA, b-ME, 1×pen/strep, and 25 mM HEPES in 175 cm^2 culture flasks. For all optical assays, the cells were seeded at ˜20,000/well in 384-well Matrigel-coated plates. For the correction assays, the cells are cultured at 37° C. with and without compounds for 16-24 hours.

CFTR = CFTR (Homo sapiens, UniProt P13569); test: standard Ussing Chamber Assay for CFTR potentiator activity; assay type: cell-based
CFTR, sequence (P13569 whole entry): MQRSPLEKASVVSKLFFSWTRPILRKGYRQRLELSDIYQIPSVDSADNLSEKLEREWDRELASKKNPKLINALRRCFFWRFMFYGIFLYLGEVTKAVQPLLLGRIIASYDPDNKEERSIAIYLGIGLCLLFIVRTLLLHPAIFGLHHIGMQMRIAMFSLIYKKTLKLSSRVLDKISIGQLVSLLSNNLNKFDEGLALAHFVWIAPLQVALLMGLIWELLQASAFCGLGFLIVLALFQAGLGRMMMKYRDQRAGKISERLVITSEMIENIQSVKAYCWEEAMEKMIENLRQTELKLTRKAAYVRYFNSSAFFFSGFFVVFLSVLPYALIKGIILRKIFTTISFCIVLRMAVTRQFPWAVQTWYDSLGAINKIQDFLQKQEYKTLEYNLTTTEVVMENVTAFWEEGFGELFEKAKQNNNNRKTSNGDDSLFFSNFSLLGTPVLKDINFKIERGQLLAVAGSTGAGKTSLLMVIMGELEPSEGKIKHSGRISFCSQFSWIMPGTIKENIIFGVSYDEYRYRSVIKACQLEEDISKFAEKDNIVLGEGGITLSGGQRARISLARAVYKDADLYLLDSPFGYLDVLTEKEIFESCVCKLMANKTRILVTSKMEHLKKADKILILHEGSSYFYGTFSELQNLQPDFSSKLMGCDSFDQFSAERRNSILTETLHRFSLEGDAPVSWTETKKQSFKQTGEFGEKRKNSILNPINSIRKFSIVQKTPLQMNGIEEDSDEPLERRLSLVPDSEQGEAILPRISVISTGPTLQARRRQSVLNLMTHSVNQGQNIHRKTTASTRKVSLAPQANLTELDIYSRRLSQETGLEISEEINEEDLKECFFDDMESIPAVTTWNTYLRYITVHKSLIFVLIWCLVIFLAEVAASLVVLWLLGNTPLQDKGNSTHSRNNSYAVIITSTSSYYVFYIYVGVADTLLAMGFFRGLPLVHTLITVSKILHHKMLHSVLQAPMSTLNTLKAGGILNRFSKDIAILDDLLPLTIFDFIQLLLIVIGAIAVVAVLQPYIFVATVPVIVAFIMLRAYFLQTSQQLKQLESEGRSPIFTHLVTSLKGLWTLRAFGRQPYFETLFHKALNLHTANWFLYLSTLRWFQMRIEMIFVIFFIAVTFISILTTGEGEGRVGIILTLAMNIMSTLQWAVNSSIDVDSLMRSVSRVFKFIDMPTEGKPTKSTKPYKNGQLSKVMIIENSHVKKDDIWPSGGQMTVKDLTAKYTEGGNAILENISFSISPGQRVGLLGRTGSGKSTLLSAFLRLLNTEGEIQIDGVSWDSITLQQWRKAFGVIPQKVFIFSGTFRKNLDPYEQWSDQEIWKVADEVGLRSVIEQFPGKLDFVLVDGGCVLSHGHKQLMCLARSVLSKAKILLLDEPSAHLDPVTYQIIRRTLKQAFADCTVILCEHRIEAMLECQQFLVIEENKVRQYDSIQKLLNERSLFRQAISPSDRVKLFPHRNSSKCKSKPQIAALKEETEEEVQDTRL

CFTR-mediated chloride transport in human intestinal epithelial enteroid cells, sequence (P13569 whole entry): as above
T1 sequence (P13569 with tags, fused parts or gaps DEL508-508): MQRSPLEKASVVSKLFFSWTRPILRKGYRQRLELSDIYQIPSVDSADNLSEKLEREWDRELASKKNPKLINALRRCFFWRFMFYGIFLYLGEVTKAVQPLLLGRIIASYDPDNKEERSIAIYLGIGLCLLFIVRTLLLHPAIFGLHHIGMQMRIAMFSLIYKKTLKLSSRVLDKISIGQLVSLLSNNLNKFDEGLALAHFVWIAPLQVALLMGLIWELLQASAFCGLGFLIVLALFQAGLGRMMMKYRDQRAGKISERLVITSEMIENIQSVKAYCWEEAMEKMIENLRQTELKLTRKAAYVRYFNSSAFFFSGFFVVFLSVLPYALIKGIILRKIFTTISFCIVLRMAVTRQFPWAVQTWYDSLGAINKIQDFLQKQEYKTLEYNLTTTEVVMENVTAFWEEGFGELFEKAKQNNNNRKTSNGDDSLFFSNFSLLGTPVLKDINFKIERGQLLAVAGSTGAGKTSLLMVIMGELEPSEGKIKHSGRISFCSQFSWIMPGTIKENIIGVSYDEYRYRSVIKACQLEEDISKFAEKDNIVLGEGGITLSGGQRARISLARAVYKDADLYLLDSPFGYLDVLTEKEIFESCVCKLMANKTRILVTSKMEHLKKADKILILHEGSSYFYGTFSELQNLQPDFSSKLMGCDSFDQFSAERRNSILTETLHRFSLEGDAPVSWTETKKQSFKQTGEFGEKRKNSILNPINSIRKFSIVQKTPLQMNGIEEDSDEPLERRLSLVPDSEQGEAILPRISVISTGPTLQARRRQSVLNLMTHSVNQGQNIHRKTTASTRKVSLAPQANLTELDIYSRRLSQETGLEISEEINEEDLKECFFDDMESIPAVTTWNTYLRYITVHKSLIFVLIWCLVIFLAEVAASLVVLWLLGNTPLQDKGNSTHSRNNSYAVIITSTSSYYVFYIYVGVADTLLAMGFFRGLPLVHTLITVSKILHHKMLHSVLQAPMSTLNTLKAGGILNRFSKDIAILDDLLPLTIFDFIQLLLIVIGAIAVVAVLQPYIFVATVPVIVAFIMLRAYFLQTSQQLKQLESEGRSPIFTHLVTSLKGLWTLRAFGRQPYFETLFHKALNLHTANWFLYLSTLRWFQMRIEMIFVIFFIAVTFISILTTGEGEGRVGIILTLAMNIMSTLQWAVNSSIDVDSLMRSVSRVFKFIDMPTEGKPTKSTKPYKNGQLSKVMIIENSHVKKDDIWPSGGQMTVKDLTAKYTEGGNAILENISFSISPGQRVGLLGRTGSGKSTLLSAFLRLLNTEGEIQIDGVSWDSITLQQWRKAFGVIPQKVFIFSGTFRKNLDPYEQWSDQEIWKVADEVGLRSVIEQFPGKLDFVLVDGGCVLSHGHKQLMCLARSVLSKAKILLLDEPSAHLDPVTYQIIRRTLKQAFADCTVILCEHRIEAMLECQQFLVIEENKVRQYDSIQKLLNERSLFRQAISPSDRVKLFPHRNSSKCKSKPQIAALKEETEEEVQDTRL

Row | Ent. Max Activity (%) [1] | EC50 ([1]; enteroid cells, 18-24 hours incubation, acute 10 μM forskolin and 300 nM ivacaftor, read-out: Ent. EC50) | CFTR modulating activity (CFTR potentiator activity) (CFTR) | Structure (SMILES) | EC50 (F508del in NIH 3T3 cells)
1 | ++ (++ is 30-60%) | 3 to 30 µM |  | Cc1ccccc1-c1nc(NS(=O)(=O)c2cnn(C)c2)cc2oc3ccccc3c12 [Compound 79, 1-Methyl-N-[1-(o-tolyl)benzofuro[3,2-c]pyridin-3-yl]pyrazole-4-sulfonamide] | 
2 |  |  | confirmed | C[C@@H]1CCCCC[C@](O)(C(F)(F)F)C2=NN=C(O2)c2nc(c(C(F)(F)F)cc2N)O1 [(6R,12R)-17-Amino-12-methyl-6,15-bis(trifluoromethyl)-13,19-dioxa-3,4,18-triazatricyclo[12.3.1.12,5]nonadeca-1(18),2,4,14,16-pentaen-6-ol] | 
3 | + (+ is <300%) |  |  | Cc1ccccc1-c1cc2oc3ccccc3c2c(NS(=O)(=O)c2cnn(C)c2)n1 [Compound 80] | 

Row | Structure (SMILES) | Ent. Max Activity (%) [1] | EC50 ([1]; enteroid cells, 18-24 hours incubation, acute 10 μM forskolin and 300 nM ivacaftor, read-out: Ent. EC50) | CFTR modulating activity (CFTR potentiator activity) (CFTR) | EC50 (F508del in NIH 3T3 cells)
4 | Cc1cc(C)c(-n2nc(NS(=O)(=O)c3ccccc3)c3ccc(C(C)(C)C)nc32)c(C)c1 [Compound 33, N-[6-tert-butyl-1-(2,4,6-trimethylphenyl)pyrazolo[3,4-b]pyridin-3-yl]benzenesulfonamide] | + (+ is <300%) |  |  | < 1 µM
